The record followed here is patent US10154970B2, “Methods for immunomodulation of cancer and infectious disease therapy” (The Regents of the University of California, priority 2014, dated 2018).

The subject of one assay is IFN-γ. Nature of the assay: Example 6: IFN-γ ELISpot response to BP25 peptide in allograft-bearing mice. The assay is classed as in vivo, C57BL/6 wild type mice. To be noted: Day 28, TRIP 100 mg/kg + PV 100 μg.
In the next assay the test system is IL-4. Here is the method: A total of 43 wild type C57BL/6 mice were assigned to four different treatment groups: Control (n=10); and TRIP (i.e., ospemifene) 10, 50, and 100 mg/kg (n=11, all TRIP groups). All mice received a full course of tecemotide (L-BLP25) peptide vaccine (PV) immunotherapy (eight weekly 10 μg doses administered subcutaneously (s.c.) as described in Wurz G T. et al., J. Transl. Med., 11:64 (2013)). During the final 16 days of immunotherapy, mice received daily oral doses of TRIP according to treatment group assignment. TRIP oral dosing solutions were prepared by dissolving an appropriate amount of the drug in pure dimethyl sulfoxide (DMSO) and then adding peanut oil to the desired final concentration (final DMSO concentration was 2%). All doses were administered in a volume of 100 μl using 20-gauge stainless steel oral feeding needles. Control mice were given diluent only. Forty-eight hours following the final dose of PV, all mice were euthanized for the collection of blood for cytokine analysis by multiplex and spleens for assessing immune response by enzyme-linked immunosorbent spot (ELISpot) assay.
Data are expressed as the number of spot forming cells (SFC)/500,000 lymphocytes following exposure to medium (no peptide), scrambled peptide, and BP25 peptide.

SMILES strings stand for the structures.

Procedure for IFN-γ: IFN-γ immune response to scrambled and BP25 peptides following treatment with control (n=5), TRIP 100 mg/kg (n=6), PV 100 μg (n=6) and the TRIP+PV (n=6) combination. Each of four weekly 100 μg injections of peptide vaccine (PV) was preceded by three daily oral doses of TRIP. All mice were implanted with breast cancer allografts on Day 0, and spleens were collected for enzyme-linked immunosorbent spot (ELISpot) analysis on Day 28 following four weeks of treatment. The BP25 peptide is a 25-mer and the target antigen of the PV, while the scrambled peptide is a control peptide containing the same 25 amino acids in a scrambled arrangement.
On Day 0 of the study, all 32 mice were subcutaneously implanted with 1.0×10^6 mouse breast cancer cells expressing the PV target antigen (BP25). Two days later, mice began a three-day regimen of once daily 100 mg/kg TRIP administered orally. On Day 5, mice were administered their first weekly 100 μg dose of PV by subcutaneous injection. This treatment schedule was repeated for a total of four weeks. Tumor growth was assessed twice weekly. All mice were euthanized on Day 28 for the collection of serum and spleens to assess immune response to treatment. Immune response was assessed by performing IFN-γ ELISpot.

Take `OCCOc1ccc(/C(=C(/CCCl)c2ccccc2)c2ccccc2)cc1` [TRIP, Z-2-[4-(4-chloro-1,2-diphenyl-but-1-enyl)-phenoxy]ethanol]: in the assay with IFN-γ, the “T cell immune response by ELISpot to the target antigen (BP25), PV in combination with TRIP” value was “specific IFN-γ responses” and the “T cell immune response by ELISpot, PV in combination with TRIP compared to PV alone” value is given as “increased immune response”. Besides, the “IL-4 response, PV + 50 mg/kg TRIP vs PV alone” value in the assay with IL-4 (TRIP 50 mg/kg daily oral final 16 days + PV) was “No significant difference”. In the assay with IL-4 (TRIP 10, 50, 100 mg/kg daily oral final 16 days + 8 weekly 10 μg PV s.c.), the “IL-4 immune response by ELISpot, TRIP combined with PV” value is “decrease with TRIP dose”.
